Laboratory results published in patent US9365608B2, “Method for treating diabetes” (Ohr Pharmaceutical, Inc., priority 2007, dated 2016).
“Also recorded” adds a separate entry of the source.

Assays:
[1] = molecular target: T1, full length tyrosine phosphatase PTP1B (Homo sapiens, UniProt P18031); assay: Inhibition of PTP1B by steroid analogues (pNPP hydrolysis, absorbance 405 nm); type: biochemical; conditions: read-out: PTP1B Inhibition (5 μM)
T1 construct: commercially available full length tyrosine phosphatase PTP1B; purchased
T1 sequence (P18031 1-435): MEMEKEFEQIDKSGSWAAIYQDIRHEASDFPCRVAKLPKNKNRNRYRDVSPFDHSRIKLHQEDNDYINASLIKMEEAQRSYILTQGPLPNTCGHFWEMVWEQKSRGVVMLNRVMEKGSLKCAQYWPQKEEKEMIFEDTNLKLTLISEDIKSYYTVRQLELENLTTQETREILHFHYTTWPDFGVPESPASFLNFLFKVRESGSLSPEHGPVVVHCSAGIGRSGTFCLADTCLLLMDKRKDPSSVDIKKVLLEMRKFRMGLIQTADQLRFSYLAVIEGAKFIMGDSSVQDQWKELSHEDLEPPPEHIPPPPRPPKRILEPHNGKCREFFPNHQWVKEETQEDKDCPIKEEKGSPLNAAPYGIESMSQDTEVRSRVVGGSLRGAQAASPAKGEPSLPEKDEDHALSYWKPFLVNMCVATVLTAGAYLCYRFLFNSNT
Description: The steroid analogues were tested for inhibition against the commercially available full length tyrosine phosphatase PTP1B. […] The assay uses para-nitro-phenyl phosphate (pNPP), a non-specific substrate to assess phosphatase activity. Phosphatase activity was based on the ability of PTP 1B to catalyze the hydrolysis of pNPP to p-nitrophenol (pNP).

full length TCPTP = molecular target: T2, full length TCPTP (Homo sapiens, UniProt P17706); assay: Inhibition of TCPTP by steroid analogues (pNPP hydrolysis); type: biochemical; conditions: 200 μM inhibitor; pNPP substrate
T2 construct: except full length TCPTP was used as the enzyme
T2 sequence (P17706 1-415): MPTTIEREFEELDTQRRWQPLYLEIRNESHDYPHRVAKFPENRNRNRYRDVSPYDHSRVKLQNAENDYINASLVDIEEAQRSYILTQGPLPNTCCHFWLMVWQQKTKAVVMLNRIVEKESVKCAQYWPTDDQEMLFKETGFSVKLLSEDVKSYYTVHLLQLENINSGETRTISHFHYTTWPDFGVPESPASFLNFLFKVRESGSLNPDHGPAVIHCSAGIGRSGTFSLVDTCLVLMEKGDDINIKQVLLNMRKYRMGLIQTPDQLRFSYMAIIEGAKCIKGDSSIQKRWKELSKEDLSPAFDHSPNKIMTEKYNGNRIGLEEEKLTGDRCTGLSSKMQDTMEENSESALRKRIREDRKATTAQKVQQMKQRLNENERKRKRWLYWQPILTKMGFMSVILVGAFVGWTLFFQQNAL
Description: The steroid analogues were tested for inhibition against the commercially available full length tyrosine phosphatase PTP1B. The ability of each analogue to inhibit the activity of PTP1B was measured in the presence of 10 μM of the steroid analogue. The assay uses para-nitro-phenyl phosphate (pNPP), a non-specific substrate to assess phosphatase activity. Phosphatase activity was based on the ability of PTP 1B to catalyze the hydrolysis of pNPP to p-nitrophenol (pNP).
The steroid analogues were also tested for their ability to inhibit the tyrosine phosphatase TCPTP as an indication of their potential toxicity by the inhibition of the immune response. The TCPTP inhibition assay was done in the same manner as the PTP1B assay except full length TCPTP was used as the enzyme and the inhibitor was at a concentration of 200 μM. The results of the TCPTP inhibition assays are shown in Table 1, column D and show three compounds that inhibit TCPTP less than 50% even at a 20 fold greater concentration.

Db/db (Lepr^db) mouse [2] = assay: Body weight change in the diabetic Db/db mouse; type: in vivo; conditions: Db/db mice, 5 or 10 mg/kg ip every 3 days x4; for % Change in Body Weight: vs body weight on study day 0
Description: (§1) To determine in vivo efficacy of the steroid analogues a Db/db (Lepr^db) in mouse model was used. Db/db mice are extensively used for screening of antidiabetic agents. Db/db mice were treated with either saline or 5 or 10 mg/kg steroid analogue every 3 days for a total of 4 doses via ip injection. Body weight, glucose tolerance and fasting blood glucose levels were measured for each group during the study. Each group had at least an N of 4 animals. All reagents and lab animals are commercially available.
Starting at study day 0, body weight measurements were taken every day for each group for up to 30 days. Percent change in body weight was calculated as the fractional response of body weight on study day X over the original body weight on study day 0.

Db/db (Lepr^db) mouse [3] = assay: Fasting blood glucose in the diabetic Db/db mouse; type: in vivo; conditions: Db/db mice; for % Reduction in FBG: 5 or 10 mg/kg ip every 3 days x4 doses, study day 14 after overnight fast, vs saline; for Reduction of FBG levels compared to saline control (in words): study day 14
Description: as §1
On study day 13, all animal groups were fasted overnight. On study day 14, 25 μL of whole blood was collected and analyzed for the glucose level (mg/dL) using a glucose analyzer.

Db/db (Lepr^db) mouse [4] = assay: Oral glucose tolerance test (OGTT) in the diabetic Db/db mouse; type: in vivo; conditions: for % Reduction in OGTT Above Baseline AUC / Reduction in ABAUC compared to saline control (in words): Db/db mice; for % Reduction in OGTT Above Baseline AUC: 5 or 10 mg/kg ip every 3 days x4, day 14, oral glucose 1.5 g/kg, 0-120 min, vs saline; for Reduction in ABAUC compared to saline control (in words): OGTT study day 14, p<0.05; for Response in glucose tolerance test vs saline treated controls (FIG. 3 legend): legend says ob/ob mice
Description: as §1
Also on study day 14, an OGTT was performed to assess glucose tolerance. At time 0, an oral glucose challenge (1.5 g/kg) was administered by oral gavage. At timepoints 0, 15, 30, 60, 90, 120 min post glucose load, 25 μl of whole blood was withdrawn from the tail vein of the animal and the glucose level was measured using a glucose analyzer. The glucose concentration vs time was plotted (FIG. 2). Above baseline area under the curve (ABAUC) of the glucose excursion time curve was determined using trapezoidal rule analyses.

[5] = previously described in US patents; cited from earlier work
[6] = tested on: Insulin Receptor β (IR-β) in the hypothalamus; assay: Phosphorylation of IR-β in the rat hypothalamus (IP / anti-pTyr western blot); type: in vivo; conditions: male SD rats, 10 mg/kg i.p. Day 0; insulin 100 U/kg i.p. Day 1; 15 or 30 min post-dose; listed as MSI-1436, 10 mg/kg
Description: Male SD rats were divided into 8 groups with 4 rats per group. All rats were fed ad libitum normal rodent chow and regular tap water. On Day 0, rats were dosed via intraperitoneal (i.p.) injection with 10 mg/kg MSI-1436 or 0.9% saline. Rats were fasted overnight from Day 0 to Day 1. On Day 1, animals were dosed i.p. with 0.9% saline or 100 U/kg of insulin. At 15 or 30 minutes post-dose (Day 1), animals were sacrificed and the hypothalamuses were harvested, transferred to 1.5 mL eppendorf tubes, and frozen in liquid nitrogen. Samples were stored at −80° C. until further analysis. Hypothalamuses were pooled (3-4 per group) and homogenized in 2-mL Wheaton vials and Dounce homogenizers in 1 mL of tissue extraction reagent plus phosphatase and protease inhibitors. Lysates were centrifuged for 10 minutes at 4° C. (14,000 rpm) and the supernatants were transferred to new 1.5 mL eppendorf tubes. Lysates (500 μg) were immunoprecipitated for Insulin Receptor β overnight at 4° C. The samples were then bound to Protein A according to standard protocols for 4 hours at 4° C. […]
500 μg of total protein from each sample was loaded onto a 1.5 mm 4-12% Bis-Tris Novex gel and run at 175V for approximately 1 hr in 1×MOPS buffer. […] The ratio of the pTyr-IRβ band to the IRβ band was computed in Excel and the fold change in IR phosphorylation determined. […]

SMILES	inhibition at 200 µM (full length TCPTP) [%]	% Change in Body Weight (Db/db (Lepr^db) mouse [2]) [%]	% Reduction in FBG (Db/db (Lepr^db) mouse [3]) [%]	Reduction of FBG levels compared to saline control (in words) (Db/db (Lepr^db) mouse [3])	% Reduction in OGTT Above Baseline AUC (Db/db (Lepr^db) mouse [4]) [%]	Reduction in ABAUC compared to saline control (in words) (Db/db (Lepr^db) mouse [4])	other results
CNCCNC(C)[C@H]1CCC2C3CC=C4CC(O)CC[C@]4(C)C3CC[C@@]21C (stereo partly drawn) [Compound 2498]							inhibition at 5 µM [1]: 13%
CC(C)CCC[C@@H](C)[C@H]1CCC2C3C(CC[C@@]21C)[C@@]1(C)CC[C@H](NCCCNCCCCN)C[C@@H]1C[C@H]3O (stereo partly drawn) [Compound 1371]	0						
CC(C)[C@@H](CC[C@@H](C)[C@H]1CCC2C3C(CC[C@@]21C)[C@@]1(C)CC[C@H](NCCCNCCCCNCCCN)C[C@H]1C[C@H]3O)OS(=O)(=O)O (stereo partly drawn) [Compound 1701]		3	40	significant reduction	49	significant reduction	Weight loss (in words) (Db/db (Lepr^db) mouse [2]): do not produce weight loss; Response in glucose tolerance test vs saline treated controls (FIG. 3 legend) (Db/db (Lepr^db) mouse [4]): respond significantly faster
CC(C)CCC[C@@H](C)[C@H]1CCC2C3CC[C@H]4C[C@@H](NCCCNCCCCNCCCN)CC[C@]4(C)C3CC[C@@]21C (stereo partly drawn) [Compound 1303]	83						
COC(=O)CC[C@@H](C)[C@H]1CCC2C3C[C@@H](O)[C@H]4C[C@@H](NCCN)CC[C@]4(C)C3CC[C@@]21C (stereo partly drawn) [Compound 1431]		−7	55	significant reduction	47	significant reduction	Weight loss (in words) (Db/db (Lepr^db) mouse [2]): weight loss similar to 1436
CC(C)[C@@H](CC[C@@H](C)C1CCC2C3C(CC[C@@]21C)[C@@]1(C)CCC(=O)C[C@H]1C[C@@H]3O)S(=O)(=O)O (stereo partly drawn) [Compound 2347]							inhibition at 5 µM [1]: 27%
CC(C)[C@@H](CC[C@@H](C)[C@H]1CCC2C3C(CC[C@@]21C)[C@@]1(C)CC[C@H](NCCCNCCCCNCCCN)C[C@@H]1C[C@H]3O)OS(=O)(=O)O (stereo partly drawn) [Compound 1873]		4	41	significant reduction	47	significant reduction	Weight loss (in words) (Db/db (Lepr^db) mouse [2]): do not produce weight loss; Response in glucose tolerance test vs saline treated controls (FIG. 3 legend) (Db/db (Lepr^db) mouse [4]): respond significantly faster
C[C@H](CCS(=O)(=O)O)[C@H]1CCC2C3CC[C@H]4C[C@@H](NCCCNCCCCN)CC[C@]4(C)C3CC[C@@]21C (stereo partly drawn) [Compound 1370]	44						
COC(=O)CC[C@@H](C)[C@H]1CCC2C3C(CC[C@@]21C)[C@@]1(C)CC[C@H](NCCCNCCCCN)C[C@@H]1C[C@H]3O (stereo partly drawn) [Compound 1320]	0						
CC(C)[C@@H](CC[C@@H](C)[C@H]1CCC2C3C(CC[C@@]21C)[C@@]1(C)CCC(O)C[C@H]1C[C@H]3O)OS(=O)(=O)O (stereo partly drawn) [Compound 2459]							inhibition at 5 µM [1]: 17%
CC(C)[C@@H](CC[C@@H](C)[C@H]1CCC2C3C(CC[C@@]21C)[C@@]1(C)CC[C@H](NCCCNCCCCNCCCN)C[C@@H]1C[C@H]3O)OS(=O)(=O)O (stereo partly drawn) [Compound 1436]	0	−8	64	significant reduction	83	significant reduction	Weight gain and appetite in animal models [5]: inhibit weight gain and suppress appetite; Amount of phospho-Tyrosine on insulin stimulated IR-β in the hypothalamus (fold change, pTyr-IRβ/IRβ) [6]: can increase the level; also recorded: nearly doubles
CC(C)[C@H](OS(=O)(=O)O)[C@@H](C)[C@H]1CCC2C3C(CC[C@@]21C)[C@@]1(C)CC[C@H](NCCCNCCCCNCCCN)C[C@@H]1C[C@H]3O (stereo partly drawn) [Compound 1814]			46	significant reduction	60	significant reduction	
